Assay results: PubChem BioAssay (NCI)
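In this assay, cells in 96-well plates receive the compound at five concentrations for 48 hours. Endpoints are linearly interpolated between the surrounding concentrations. TGI marks complete inhibition of growth.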

Tests used:
Experiment in all cases: DTP human tumour cell line panel, 48 h
NCI-H522 lung = test system: NCI-H522 lung
SN12C renal = test system: SN12C renal
NCI/ADR-RES ovarian = test system: NCI/ADR-RES ovarian
EKVX NSCLC = test system: EKVX NSCLC
KM12 colon = test system: KM12 colon
OVCAR-8 ovarian = test system: OVCAR-8 ovarian
K-562 leukemia = test system: K-562 leukemia
UO-31 renal = test system: UO-31 renal
A549 NSCLC = test system: A549 NSCLC
BT-549 breast = test system: BT-549 breast
HL-60(TB) leukemia = test system: HL-60(TB) leukemia
CCRF-CEM leukemia = test system: CCRF-CEM leukemia
TK-10 renal = test system: TK-10 renal
OVCAR-4 ovarian = test system: OVCAR-4 ovarian
IGROV1 ovarian = test system: IGROV1 ovarian
DU-145 prostate = test system: DU-145 prostate
HCT-116 colon = test system: HCT-116 colon
SK-MEL-2 melanoma = test system: SK-MEL-2 melanoma
MALME-3M melanoma = test system: MALME-3M melanoma
SW-620 colon = test system: SW-620 colon

| SMILES | TGI (NCI-H522 lung) [µM] | TGI (SN12C renal) [µM] | TGI (NCI/ADR-RES ovarian) [µM] | TGI (EKVX NSCLC) [µM] | TGI (KM12 colon) [µM] | TGI (OVCAR-8 ovarian) [µM] | TGI (K-562 leukemia) [µM] | TGI (UO-31 renal) [µM] | TGI (A549 NSCLC) [µM] | TGI (BT-549 breast) [µM] | TGI (HL-60(TB) leukemia) [µM] | TGI (CCRF-CEM leukemia) [µM] | TGI (TK-10 renal) [µM] | TGI (OVCAR-4 ovarian) [µM] | TGI (IGROV1 ovarian) [µM] | TGI (DU-145 prostate) [µM] | TGI (HCT-116 colon) [µM] | TGI (SK-MEL-2 melanoma) [µM] | TGI (MALME-3M melanoma) [µM] | TGI (SW-620 colon) [µM] |
| --- | --- | --- | --- | --- | --- | --- | --- | --- | --- | --- | --- | --- | --- | --- | --- | --- | --- | --- | --- | --- |
| CC(=O)Nc1cc(C(=O)Nc2cc(C(=O)N3CC(CCl)c4c3cc(N)c3ccccc43)nn2C)nn1C (stereo unspecified) | 0.0181 | 0.0102 | 7.49 | 1.15 | 7.83 | 0.308 | 0.823 | 1.35 | 2.85 | 0.883 | < 0.0344 | 0.0491 | > 100 | 0.677 | 0.851 | 0.018 | 0.412 | 0.427 | 0.267 |  |
| Cc1nc2ccccc2c(=O)n1NC(=O)c1ccc(CS)cc1 | 27 | 70.8 | > 100 | 66.2 | 63.7 | > 100 | 68.1 | 29.9 | 64.5 | 46.3 | > 100 | 3.6 |  | > 100 | 27.2 | 88.2 | 16.9 |  | 69.9 | 21.7 |
| O=C1N=c2ccccc2=C1c1c(O)[nH]c2ccccc12 | 25.6 | 51.5 | 48.2 | 71.6 | > 100 | 66.7 | > 100 | 30.5 | > 100 | 96.2 |  | > 100 | 72.7 | 29.9 | > 100 | 54.6 | 88.3 | 58.9 | 35.5 | > 100 |
| CCOC(CCNCC(OCC)OCC)OCC | > 10 | > 10 | > 10 | > 10 | > 10 | > 10 | > 10 |  | > 10 | > 10 | > 10 | > 10 | > 10 | > 10 | > 10 | > 10 | > 10 | > 10 | > 10 |  |
| O=C1OC[C@@H]2Cc3cc4c(cc3[C@H](c3ccc5c(c3)OCO5)[C@@H]12)OCO4 |  | > 25 | > 25 | > 25 | > 25 | > 25 | > 25 | > 25 | > 25 | > 25 | > 25 | > 25 | > 25 | > 25 |  | > 25 | > 25 | > 25 | > 25 |  |
| CC(C)(C)OC(=O)NCC(O)CNC(=O)OC(C)(C)C | > 100 | > 100 | > 100 | > 100 | > 100 | > 100 | > 100 | > 100 | > 100 | > 100 | > 100 | > 100 | > 100 | > 100 | > 100 | > 100 | > 100 |  | > 100 | > 100 |
| CN(C)Cc1cc(C(=O)/C=C/c2ccc(Cl)cc2)cc(CN(C)C)c1O | 10.8 | 28.1 | 54.2 | 38.8 | 19.6 | 51.3 | 21.4 | 19.9 | 28.7 | 11.3 | 22.9 | 94.2 | 39 |  | 29 | 24.4 | 26.5 |  | 24.8 | 20.5 |
| NC(=O)C(N)Cc1ccc(O)cn1 (stereo unspecified) | > 100 | > 100 | > 100 | > 100 | > 100 | > 100 | > 100 | > 100 | > 100 | > 100 | > 100 | > 100 | > 100 | > 100 | > 100 | > 100 | > 100 |  | > 100 | > 100 |
| c1ccc2sc(C3(N4CCCC4)CCCCCC3)cc2c1 | 33.3 | 29.2 | 44.4 | 33 | 26.3 | 37 | 38.5 | 26 | 43 | 51.9 | 35.4 | 24.2 | 45.1 | 31.8 | 46.2 | > 100 | 27.7 |  |  | 34.4 |
| Cc1cc(N(CCC#N)CCC#N)ccc1/C(N=Nc1ccc([N+](=O)[O-])cc1)=N\NC(=O)c1cc(Cl)ccc1C(=O)c1ccccc1 | 6.17 | > 100 | 50.9 | 28.3 | 47.8 | 26.1 | > 100 | 60.5 | > 100 | > 100 |  | 12.5 | > 100 | 95 | 17.9 | 56.8 | 23.6 | 57.8 | 31.1 | 82.2 |
| CCn1c(-c2cc(OC)cc(OC)c2)nc2c1C(=O)c1ccccc1C2=O | 87.9 | > 100 | > 100 | > 100 | > 100 | > 100 | > 100 |  | > 100 | > 100 | > 100 | > 100 | > 100 | > 100 | > 100 | > 100 | > 100 |  | > 100 | > 100 |
| COc1ccc(/C=C(/C(=O)c2ccc(Cl)cc2)N2C=CC=CC2=C(C#N)C#N)cc1OC | 0.953 | 47.7 | 44.9 | 10.6 | 42.1 | 16.1 |  | 3.44 | 30.4 | 22.5 | 7.79 | 0.665 | 17.8 | 20.5 | 14.9 | 28.5 | 5.41 | 29.7 | 2.91 | > 32.9 |
